IC50 data for 14 molecules are collected here from patent publication US9850283B2, “Macrocyclic inhibitors of the PD-1/PD-L1 and CD80(B7-1)/PD-L1 protein/protein interactions” (BRISTOL-MYERS SQUIBB COMPANY, priority 2013, dated 2017).

pIC50: −log10 of the molar value. Read-outs that look alike come from different tables or passages of the source. Positions of bridges follow the written chain, without caps; N, C: chain ends. Non-standard residues stand in square brackets, D forms with d. Residues, ends and D or L forms follow the SMILES beside them. ξ: configuration not given here. Phe(3,4-Cl2) = N[C@@H](Cc1ccc(Cl)c(Cl)c1)C(=O)O; Ala(4-thiazolyl) = N[C@@H](Cc1cscn1)C(=O)O; Phe(4-F) = N[C@@H](Cc1ccc(F)cc1)C(=O)O; Hyp = O=C(O)[C@@H]1C[C@@H](O)CN1; NMeF = CN[C@@H](Cc1ccccc1)C(=O)O; NMeNle = CCCC[C@H](NC)C(=O)O; NMeM = CN[C@@H](CCSC)C(=O)O; NMeS = CN[C@@H](CO)C(=O)O; NMeA = CN[C@@H](C)C(=O)O; Dab = NCC[C@H](N)C(=O)O; Dap = NC[C@H](N)C(=O)O; ξC = NC(CS)C(=O)O; Sar = CNCC(=O)O

For one experiment, the target named is T1, Human PD-L1/PD-1 (Homo sapiens, UniProt Q9NZQ7).
T1 construct: made in house; host or cells: HEK293T
T1 sequence (Q9NZQ7 with tags, fused parts or gaps): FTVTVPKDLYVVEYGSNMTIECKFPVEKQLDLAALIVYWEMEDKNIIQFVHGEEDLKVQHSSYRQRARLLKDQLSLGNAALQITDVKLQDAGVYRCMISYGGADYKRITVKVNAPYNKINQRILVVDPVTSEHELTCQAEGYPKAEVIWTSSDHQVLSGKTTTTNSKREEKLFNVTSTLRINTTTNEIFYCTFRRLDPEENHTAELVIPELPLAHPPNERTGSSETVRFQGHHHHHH
Nature of the experiment: HTRF PD-1-Ig/PD-L1-His binding assay (human PD-L1). Put shortly:
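The time-resolved fluorescence signal comes from Eu-cryptate anti-Ig (1 nM) and APC anti-His (20 nM) antibodies bound to a PD-1-Ig/PD-L1-His complex. Both partners lack transmembrane regions.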

Experiment [1] deals with T2, LK35.2-hPD-L1 cells / PE-labeled PD-1-Ig (Homo sapiens, UniProt Q9NZQ7).
T2 construct: expressed in transfected cells; host or cells: LK35.2 mouse B cell line
T2 sequence (Q9NZQ7 19-290): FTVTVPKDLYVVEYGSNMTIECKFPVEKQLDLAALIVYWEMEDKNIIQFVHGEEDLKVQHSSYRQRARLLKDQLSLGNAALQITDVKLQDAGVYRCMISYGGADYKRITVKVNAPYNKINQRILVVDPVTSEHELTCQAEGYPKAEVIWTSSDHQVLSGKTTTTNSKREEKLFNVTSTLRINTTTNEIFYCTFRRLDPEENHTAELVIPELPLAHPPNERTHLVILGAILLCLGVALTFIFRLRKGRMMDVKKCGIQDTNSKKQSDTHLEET
The experiment can be described thus: LK35.2-hPD-L1 cell binding high-content screening assay. Type of experiment: cell-based. Put shortly: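 Mouse LK35.2 B cells stably overexpressing human PD-L1 were cultured overnight in RPMI with 10% FCS, then given compound and PE-labeled human PD-1-Ig (1 nM final) for 1 h at 37 °C. After three dPBS washes, bound fluorescence was quantified by high-content imaging.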

The mark [2] stands for this setting: cluster symbol, read-out: HTRF IC50 cluster.
Where [3] appears, read: cluster symbol, cell line of CBA not given (LK35.2-hPD-L1 or 293T-hPD-L1), read-out: CBA IC50 cluster.
Setting [4] is: cell binding assay, cell line not given, cluster symbol, read-out: CBA IC50 cluster.

Usually pIC50 stands for the negative decadic logarithm of the IC50, by convention in mol/L. With `CCCC[C@H]1C(=O)N(C)CC(=O)N[C@@H](CC(=O)O)C(=O)N[C@@H](C(C)C)C(=O)N(C)[C@@H](Cc2ccccc2)C(=O)N[C@@H](Cc2ccc(O)cc2)C(=O)N(C)CC(=O)N[C@@H](Cc2c[nH]c3ccccc23)C(=O)N[C@@H](Cc2ccc(O)cc2)C(=O)N[C@@H](CC(C)C)C(=O)N[C@H](C(=O)NCC(N)=O)CSCC(=O)N[C@@H](Cc2cscn2)C(=O)N(C)[C@@H](Cc2ccccc2)C(=O)N1C` [Example 3092] ({CH2CO}-[Ala(4-thiazolyl)][NMeF][NMeNle][Sar]DV[NMeF]Y[Sar]WYLCG-NH2; thioether N-13), the pIC50 on Human PD-L1/PD-1 (setting [2]) is < 7.52; in experiment [1] (setting [3]), < 7.13.
For `CCCC[C@H]1C(=O)N(C)[C@@H](CCCC)C(=O)N[C@@H](C)C(=O)N[C@H](C(=O)NCC(=O)O)CSCC(=O)N[C@@H](Cc2ccc(O)cc2)C(=O)N(C)[C@@H](C)C(=O)N[C@@H](CC(N)=O)C(=O)N2CCC[C@H]2C(=O)N[C@@H](Cc2cnc[nH]2)C(=O)N[C@@H](CC(C)C)C(=O)N[C@@H](CCN)C(=O)N[C@@H](Cc2c[nH]c3ccccc23)C(=O)N[C@@H](CO)C(=O)N[C@@H](Cc2c[nH]c3ccccc23)C(=O)N1C` [Example 1229], in that order: 7.52 to 8.17 and 7.14 to 8.32.
As to `CCCC[C@H]1C(=O)N(C)[C@@H](CCSC)C(=O)N[C@@H](CCCNC(=N)N)C(=O)NC(C(=O)NCC(N)=O)CSCC(=O)N[C@@H](Cc2ccc(O)cc2)C(=O)N(C)[C@@H](C)C(=O)N[C@@H](CC(N)=O)C(=O)N2CCC[C@H]2C(=O)N[C@@H](Cc2cnc[nH]2)C(=O)N[C@@H](CO)C(=O)N2C[C@H](O)C[C@H]2C(=O)N[C@@H](Cc2c[nH]c3ccccc23)C(=O)N[C@@H](CO)C(=O)N[C@@H](Cc2c[nH]c3ccccc23)C(=O)N1C` (stereo partly shown) [Example 9107] ({CH2CO}-Y[NMeA]NPHS[Hyp]WSW[NMeNle][NMeM]R[ξC]G-NH2; thioether N-14), the pIC50 is 7.52 to 8.17 on Human PD-L1/PD-1 (setting [2]) and 7.14 to 8.32 in experiment [1] (setting [4]).
Turning to `CCCC[C@H]1C(=O)N(C)CC(=O)N[C@@H](CC(=O)O)C(=O)N[C@@H](C(C)C)C(=O)N(C)[C@@H](Cc2ccccc2)C(=O)N[C@@H](Cc2ccc(O)cc2)C(=O)N(C)CC(=O)N[C@@H](Cc2c[nH]c3ccccc23)C(=O)N[C@H](C(=O)NCC(N)=O)CSCC(=O)N[C@@H](Cc2ccccc2)C(=O)N(C)[C@@H](Cc2ccccc2)C(=O)N1C` [Example 3055] (HELM PEPTIDE1{[O=C(C[*:3])[*:2]].F.[meF].[CCCC[C@@H](C(=O)[*:2])N(C)[*:1]].[Sar].D.V.[meF].Y.[Sar].W.C.G.[am]}$PEPTIDE1,PEPTIDE1,1:R3-12:R3$$$V2.0), the pIC50 on Human PD-L1/PD-1 (setting [2]) was < 7.52; in experiment [1] (setting [3]), < 7.13.
On to `CCCC[C@H]1C(=O)N(C)[C@@H](CCCC)C(=O)N[C@@H](C)C(=O)N[C@H](C(=O)NCC(N)=O)CSCC(=O)N[C@@H](Cc2ccc(O)cc2)C(=O)N(C)[C@@H](C)C(=O)N[C@@H](CC(N)=O)C(=O)N2CCC[C@H]2C(=O)N[C@@H](CN)C(=O)N[C@@H](CCC(=O)O)C(=O)N2C[C@H](O)C[C@H]2C(=O)N[C@@H](Cc2c[nH]c3ccccc23)C(=O)N[C@@H](CCN)C(=O)N[C@@H](Cc2c[nH]c3ccccc23)C(=O)N1C` [Example 5040] ({CH2CO}-Y[NMeA]NP[Dap]E[Hyp]W[Dab]W[NMeNle][NMeNle]ACG-NH2; thioether N-14), for which the pIC50 on Human PD-L1/PD-1 (setting [2]) is 7.52 to 8.17; in experiment [1] (setting [4]) it was 8.33 to 9.80.
Regarding `CCCC[C@H]1C(=O)N(C)[C@@H](CCCC)C(=O)N[C@@H](C)C(=O)N[C@H](C(=O)NCC(N)=O)CSCC(=O)N[C@@H](Cc2ccc(O)cc2)C(=O)N(C)[C@@H](C)C(=O)N[C@@H](CC(N)=O)C(=O)N2CCC[C@H]2C(=O)N[C@@H](Cc2cnc[nH]2)C(=O)N[C@@H](CCC(=O)O)C(=O)N2C[C@H](O)C[C@H]2C(=O)N[C@@H](Cc2c[nH]c3ccccc23)C(=O)N[C@@H](CCN)C(=O)N[C@@H](Cc2c[nH]c3ccccc23)C(=O)N1C` [Example 5036] ({CH2CO}-Y[NMeA]NPHE[Hyp]W[Dab]W[NMeNle][NMeNle]ACG-NH2; thioether N-14), the pIC50 at Human PD-L1/PD-1 (setting [2]) is 8.17 to 9.41; in experiment [1] (setting [4]) it was 8.33 to 9.80.
For the molecule `CCCC[C@H]1C(=O)N(C)[C@@H](CCCC)C(=O)N[C@@H](CCCN)C(=O)N[C@H](C(=O)NCC(N)=O)CSCC(=O)N[C@@H](Cc2ccc(O)cc2)C(=O)N2CC[C@H]2C(=O)N[C@@H](CC(N)=O)C(=O)N2CCC[C@H]2C(=O)N[C@@H](Cc2cnc[nH]2)C(=O)N[C@@H](CC(C)C)C(=O)N2C[C@H](O)C[C@H]2C(=O)N[C@@H](Cc2c[nH]c3ccccc23)C(=O)N[C@@H](CO)C(=O)N[C@@H](Cc2c[nH]c3ccccc23)C(=O)N1C` [Example 1176], the pIC50 is 7.52 to 8.17 on Human PD-L1/PD-1 (setting [2]) and 7.14 to 8.32 in experiment [1] (setting [3]).
`CCCC[C@H]1C(=O)N(C)[C@@H](CCCC)C(=O)N[C@@H](CCCNC(=N)N)C(=O)N[C@H](C(=O)NCC(N)=O)CSCC(=O)N[C@@H](Cc2ccc(Cl)c(Cl)c2)C(=O)N(C)[C@@H](C)C(=O)N[C@@H](CC(N)=O)C(=O)N2CCC[C@H]2C(=O)N[C@@H](CN)C(=O)N[C@@H](CC(C)C)C(=O)N2C[C@H](O)C[C@H]2C(=O)N[C@@H](Cc2c[nH]c3ccccc23)C(=O)N[C@@H](CO)C(=O)N[C@@H](Cc2c[nH]c3ccccc23)C(=O)N1C` [Example 7063] ({CH2CO}-[Phe(3,4-Cl2)][NMeA]NP[Dap]L[Hyp]WSW[NMeNle][NMeNle]RCG-NH2; thioether N-14): the values for the pIC50 (at Human PD-L1/PD-1 (setting [2]); in experiment [1] (setting [4])) were 8.17 to 9.41 and 7.14 to 8.32, respectively.
Regarding `CCCC[C@H]1C(=O)N(C)CC(=O)N[C@@H](CC(=O)O)C(=O)N[C@@H](C(C)C)C(=O)N(C)[C@@H](Cc2ccccc2)C(=O)N[C@H](Cc2ccc(O)cc2)C(=O)N(C)CC(=O)N[C@@H](Cc2c[nH]c3ccccc23)C(=O)N[C@H](Cc2ccc(O)cc2)C(=O)N[C@@H](CC(C)C)C(=O)N[C@H](C(=O)NCC(N)=O)CSCC(=O)N[C@@H](Cc2ccccc2)C(=O)N(C)[C@@H](Cc2ccccc2)C(=O)N1C` [Example 3564] (HELM PEPTIDE1{[O=C(C[*:3])[*:2]].F.[meF].[CCCC[C@@H](C(=O)[*:2])N(C)[*:1]].[Sar].D.V.[meF].[dY].[Sar].W.[dY].L.C.G.[am]}$PEPTIDE1,PEPTIDE1,1:R3-14:R3$$$V2.0), the pIC50 at Human PD-L1/PD-1 (value given instead of cluster, read-out: HTRF IC50 value) was < 5.00; in experiment [1] (cell binding assay, cell line not given, value given instead of cluster, read-out: CBA IC50 value), < 5.00.
On to `CCCC[C@H]1C(=O)N(C)[C@@H](CCCC)C(=O)N[C@@H](CCCN)C(=O)N[C@H](C(=O)NCC(N)=O)CSCC(=O)N[C@@H](Cc2ccc(O)cc2)C(=O)N2C[C@@H](N)C[C@H]2C(=O)N[C@@H](CC(N)=O)C(=O)N2CCC[C@H]2C(=O)N[C@@H](Cc2cnc[nH]2)C(=O)N[C@@H](CC(C)C)C(=O)N2C[C@H](O)C[C@H]2C(=O)N[C@@H](Cc2c[nH]c3ccccc23)C(=O)N[C@@H](CO)C(=O)N[C@@H](Cc2c[nH]c3ccccc23)C(=O)N1C` [Example 1188], for which the pIC50 on Human PD-L1/PD-1 (setting [2]) is 7.52 to 8.17; in experiment [1] (setting [3]), 7.14 to 8.32.
Consider `CCCC[C@H]1C(=O)N(C)CC(=O)N[C@@H](CC(=O)O)C(=O)N[C@@H](C(C)C)C(=O)N[C@@H](Cc2ccc(F)cc2)C(=O)N[C@@H](Cc2ccc(O)cc2)C(=O)N(C)CC(=O)N[C@@H](Cc2c[nH]c3ccccc23)C(=O)N[C@@H](Cc2ccc(O)cc2)C(=O)N[C@@H](CC(C)C)C(=O)N[C@H](C(=O)NCC(N)=O)CSCC(=O)N[C@@H](Cc2ccccc2)C(=O)N(C)[C@@H](Cc2ccccc2)C(=O)N1C` [Example 3570] ({CH2CO}-F[NMeF][NMeNle][Sar]DV[Phe(4-F)]Y[Sar]WYLCG-NH2; thioether N-13), for which the pIC50 on Human PD-L1/PD-1 (setting [2]) was < 7.52; in experiment [1] (setting [4]) it was < 7.13.
Take `CCCC[C@H]1C(=O)N(C)[C@@H](CCCC)C(=O)N[C@@H](CC(C)C)C(=O)N[C@H](C(=O)NCC(N)=O)CSCC(=O)N[C@@H](Cc2ccc(O)cc2)C(=O)N(C)[C@@H](C)C(=O)N[C@@H](CC(=O)O)C(=O)N2CCC[C@H]2C(=O)N[C@@H](Cc2cnc[nH]2)C(=O)N[C@@H](CCC(=O)O)C(=O)N2C[C@H](O)C[C@H]2C(=O)N[C@@H](Cc2c[nH]c3ccccc23)C(=O)N[C@@H](CO)C(=O)N[C@@H](Cc2c[nH]c3ccccc23)C(=O)N1C` [Example 6026] ({CH2CO}-Y[NMeA]DPHE[Hyp]WSW[NMeNle][NMeNle]LCG-NH2; thioether N-14): the pIC50 on Human PD-L1/PD-1 (setting [2]) was 8.17 to 9.41; in experiment [1] (setting [4]), 8.33 to 9.80.
For `CCCC[C@H]1C(=O)N(C)[C@@H](CO)C(=O)N[C@@H](CCCNC(=N)N)C(=O)NC(C(=O)NCC(N)=O)CSCC(=O)N[C@@H](Cc2ccc(O)cc2)C(=O)N(C)[C@@H](C)C(=O)N[C@@H](CC(N)=O)C(=O)N2CCC[C@H]2C(=O)N[C@@H](Cc2cnc[nH]2)C(=O)N[C@@H](CC(C)C)C(=O)N2CCC[C@H]2C(=O)N[C@@H](Cc2c[nH]c3ccccc23)C(=O)N[C@@H](CO)C(=O)N[C@@H](Cc2c[nH]c3ccccc23)C(=O)N1C` (stereo partly shown) [Example 9032] ({CH2CO}-Y[NMeA]NPHLPWSW[NMeNle][NMeS]R[ξC]G-NH2; thioether N-14), in that order: 7.52 to 8.17 and 7.14 to 8.32.
For `CCCC[C@H]1C(=O)N(C)[C@@H](CCCC)C(=O)N[C@@H](CCC(=O)O)C(=O)N[C@H](C(=O)NCC(N)=O)CSCC(=O)N[C@@H](Cc2ccc(O)cc2)C(=O)N(C)[C@@H](C)C(=O)N[C@@H](CC(=O)O)C(=O)N2CCC[C@H]2C(=O)N[C@@H](Cc2cnc[nH]2)C(=O)N[C@@H](CCCCN)C(=O)N2C[C@H](O)C[C@H]2C(=O)N[C@@H](Cc2c[nH]c3ccccc23)C(=O)N[C@@H](CCCCN)C(=O)N[C@@H](Cc2c[nH]c3ccccc23)C(=O)N1C` [Example 5069] ({CH2CO}-Y[NMeA]DPHK[Hyp]WKW[NMeNle][NMeNle]ECG-NH2; thioether N-14), in that order: 8.17 to 9.41 and 8.33 to 9.80.
